Source: patent publication US12454529B2, “Piperazine cyclic ureas” (SIRONAX LTD., priority 2020, dated 2025)
Read-outs that look alike come from different tables or passages of the source.

Tested on: HT-29 cells
Assay: HT-29 cell necrosis/necroptosis inhibition (TNF-α + SMAC mimetic + zVAD-FMK; CellTiter-Glo cell viability)
Type: cell-based
Conditions: HT-29 cells, TNF-α 10 ng/ml + SMAC mimetic 6 μM + zVAD-FMK 10 μM, 20 hours, geometric mean, 10 points in duplicate, read-out: EC50 (Cell activity; Necrosis/Necroptosis Inhibitory Activity, Compounds 143-323)
In short: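 Necroptosis was driven by TNF-α 10 ng/ml plus SMAC mimetic 6 μM and zVAD-FMK 10 μM in serum-free medium, with compounds as a 10-point threefold titration. After 20 h at 37 °C, ATP-based luminescence was read; EC50 values are geometric means of duplicate curves.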

Structure (SMILES) | EC50 (Homo sapiens) [nM] | EC50 [nM]
Cc1nc(C)n(-c2nc(N3CCN(C(=O)N4N=CCC4c4ncccc4Cl)CC3)ncc2F)n1 (stereo not drawn) [Compound 189, (5-(3-chloropyridin-2-yl)-4,5-dihydro-1H-pyrazol-1-yl)(4-(4-(3,5-dimethyl-1H-1,2,4-triazol-1-yl)-5-fluoropyrimidin-2-yl)piperazin-1-yl)methanone] | 0.1 to 100 | –
Cc1nc(C(=O)O)nn1-c1nc(N2CCN(C(=O)N3N=CC[C@H]3c3cc(F)cc(C#N)c3)CC2)ncc1F [Compound 190] | 1000 to 10000 | –
Cc1nn(-c2nc(N3CCN(C(=O)N4N=CC[C@H]4c4cc(F)cc(C#N)c4)CC3)ncc2F)c(C)c1[N+](=O)[O-] [Compound 191, (S)-3-(1-(4-(4-(3,5-dimethyl-4-nitro-1H-pyrazol-1-yl)-5-fluoropyrimidin-2-yl)piperazine-1-carbonyl)-4,5-dihydro-1H-pyrazol-5-yl)-5-fluorobenzonitrile] | 0.1 to 100 | –
Cc1nn(-c2nc(N3CCN(C(=O)N4N=CC[C@H]4c4cc(F)cc(C#N)c4)CC3)ncc2F)c(C)c1NC(=O)C1CC1 [Compound 192, (S)—N-(1-(2-(4-(5-(3-cyano-5-fluorophenyl)-4,5-dihydro-1H-pyrazole-1-carbonyl)piperazin-1-yl)-5-fluoropyrimidin-4-yl)-3,5-dimethyl-1H-pyrazol-4-yl)cyclopropanecarboxamide] | 0.1 to 100 | –
CC(=O)Nc1c(C)nn(-c2nc(N3CCN(C(=O)N4N=CC[C@H]4c4cc(F)cc(F)c4)CC3)ncc2F)c1C [Compound 193, (S)—N-(1-(2-(4-(5-(3,5-difluorophenyl)-4,5-dihydro-1H-pyrazole-1-carbonyl)piperazin-1-yl)-5-fluoropyrimidin-4-yl)-3,5-dimethyl-1H-pyrazol-4-yl)acetamide] | 0.1 to 100 | –
CCS(=O)(=O)Nc1c(C)nn(-c2nc(N3CCN(C(=O)N4N=CC[C@H]4c4cc(F)cc(C#N)c4)CC3)ncc2F)c1C [Compound 194, (S)—N-(1-(2-(4-(5-(3-cyano-5-fluorophenyl)-4,5-dihydro-1H-pyrazole-1-carbonyl)piperazin-1-yl)-5-fluoropyrimidin-4-yl)-3,5-dimethyl-1H-pyrazol-4-yl)ethanesulfonamide] | 0.1 to 100 | –
Cc1nn(-c2nc(N3CCN(C(=O)N4N=CC[C@H]4c4cc(F)cc(C#N)c4)CC3)ncc2F)c(C)c1NC(=O)CC1CC1 [Compound 195, (S)—N-(1-(2-(4-(5-(3-cyano-5-fluorophenyl)-4,5-dihydro-1H-pyrazole-1-carbonyl)piperazin-1-yl)-5-fluoropyrimidin-4-yl)-3,5-dimethyl-1H-pyrazol-4-yl)-2-cyclopropylacetamide] | 0.1 to 100 | –
Cc1cc(C(F)(F)F)nn1-c1nc(N2CCN(C(=O)N3N=CC[C@H]3c3cc(F)cc(F)c3)CC2)ncc1F [Compound 196, (S)-(5-(3,5-difluorophenyl)-4,5-dihydro-1H-pyrazol-1-yl)(4-(5-fluoro-4-(5-methyl-3-(trifluoromethyl)-1H-pyrazol-1-yl)pyrimidin-2-yl)piperazin-1-yl)methanone] | 0.1 to 100 | –
Cn1cnnc1-c1nc(N2CCN(C(=O)N3N=CC[C@H]3c3cc(F)cc(C#N)c3)CC2)ncc1F [Compound 197, (S)-3-fluoro-5-(1-(4-(5-fluoro-4-(4-methyl-4H-1,2,4-triazol-3-yl)pyrimidin-2-yl)piperazine-1-carbonyl)-4,5-dihydro-1H-pyrazol-5-yl)benzonitrile] | 1000 to 10000 | –
Cc1c(-c2nc(N3CCN(C(=O)N4N=CC[C@H]4c4cc(F)cc(F)c4)CC3)ncc2F)c(C(F)(F)F)nn1C [Compound 198, (S)-(5-(3,5-difluorophenyl)-4,5-dihydro-1H-pyrazol-1-yl)(4-(4-(1,5-dimethyl-3-(trifluoromethyl)-1H-pyrazol-4-yl)-5-fluoropyrimidin-2-yl)piperazin-1-yl)methanone] | 0.1 to 100 | –
CCn1cnn(-c2nc(N3CCN(C(=O)N4N=CC[C@H]4c4cc(F)cc(F)c4)CC3)ncc2F)c1=O [Compound 199, (S)-2-(2-(4-(5-(3,5-difluorophenyl)-4,5-dihydro-1H-pyrazole-1-carbonyl)piperazin-1-yl)-5-fluoropyrimidin-4-yl)-4-ethyl-2,4-dihydro-3H-1,2,4-triazol-3-one] | 0.1 to 100 | –
CCn1cnn(-c2nc(N3CCN(C(=O)N4N=CC[C@H]4c4cc(F)cc(C#N)c4)CC3)ncc2F)c1=O [Compound 200, (S)-3-(1-(4-(4-(4-ethyl-5-oxo-4,5-dihydro-1H-1,2,4-triazol-1-yl)-5-fluoropyrimidin-2-yl)piperazine-1-carbonyl)-4,5-dihydro-1H-pyrazol-5-yl)-5-fluorobenzonitrile] | 0.1 to 100 | –
Cc1nc(C(F)(F)F)nn1-c1nc(N2CCN(C(=O)N3N=CC[C@H]3c3cc(F)cc(F)c3)CC2)ncc1F [Compound 203, (S)-(5-(3,5-difluorophenyl)-4,5-dihydro-1H-pyrazol-1-yl)(4-(5-fluoro-4-(5-methyl-3-(trifluoromethyl)-1H-1,2,4-triazol-1-yl)pyrimidin-2-yl)piperazin-1-yl)methanone] | 0.1 to 100 | –
Cc1nn(-c2nc(N3CCN(C(=O)N4N=CC[C@H]4c4cc(F)cc(C#N)c4)CC3)ncc2F)c(C)c1S(C)(=O)=O [Compound 204, (S)-3-(1-(4-(4-(3,5-dimethyl-4-(methylsulfonyl)-1H-pyrazol-1-yl)-5-fluoropyrimidinyl)piperazine-1-carbonyl)-4,5-dihydro-1H-pyrazol-5-yl)-5-fluorobenzonitrile] | 0.1 to 100 | –
CCS(=O)(=O)c1c(C)nn(-c2nc(N3CCN(C(=O)N4N=CC[C@H]4c4cc(F)cc(C#N)c4)CC3)ncc2F)c1C [Compound 205, (S)-3-(1-(4-(4-(4-(ethylsulfonyl)-3,5-dimethyl-1H-pyrazol-1-yl)-5-fluoropyrimidin-2-yl)piperazine-1-carbonyl)-4,5-dihydro-1H-pyrazol-5-yl)-5-fluorobenzonitrile] | 0.1 to 100 | –
Cc1nn(-c2ccnc(N3CCN(C(=O)N4N=CC[C@H]4c4cc(F)cc(C#N)c4)CC3)n2)c(C)c1S(C)(=O)=O [Compound 206, (S)-3-(1-(4-(4-(3,5-dimethyl-4-(methylsulfonyl)-1H-pyrazol-1-yl)pyrimidin-2-yl)piperazine-1-carbonyl)-4,5-dihydro-1H-pyrazol-5-yl)-5-fluorobenzonitrile] | 0.1 to 100 | –
Cc1nc(C(F)(F)F)nn1-c1nc(N2CCN(C(=O)N3N=CC[C@H]3c3cc(F)cc(C#N)c3)CC2)ncc1F [Compound 207, (S)-3-fluoro-5-(1-(4-(5-fluoro-4-(5-methyl-3-(trifluoromethyl)-1H-1,2,4-triazol-1-yl)pyrimidin-2-yl)piperazine-1-carbonyl)-4,5-dihydro-1H-pyrazol-5-yl)benzonitrile] | 0.1 to 100 | –
Cc1nn(S(C)(=O)=O)c(C)c1-c1nc(N2CCN(C(=O)N3N=CC[C@H]3c3cc(F)cc(C#N)c3)CC2)ncc1F [Compound 208, (S)-3-(1-(4-(4-(3,5-dimethyl-1-(methylsulfonyl)-1H-pyrazol-4-yl)-5-fluoropyrimidin-2-yl)piperazine-1-carbonyl)-4,5-dihydro-1H-pyrazol-5-yl)-5-fluorobenzonitrile] | 0.1 to 100 | –
Cc1nc(C2CC=NN2C(=O)N2CCN(c3ncc(F)c(-c4nnc(C)s4)n3)CC2)co1 (stereo not drawn) [Compound 209, (4-(5-fluoro-4-(5-methyl-1,3,4-thiadiazol-2-yl)pyrimidin-2-yl)piperazin-1-yl)(5-(2-methyloxazol-4-yl)-4,5-dihydro-1H-pyrazol-1-yl)methanone] | 100 to 1000 | –
Cc1nnc(-c2nc(N3CCN(C(=O)N4N=CCC4c4ncccc4Cl)CC3)ncc2F)s1 (stereo not drawn) [Compound 210] | 0.1 to 100 | –
Cc1nc(C)n(-c2nc(N3CCN(C(=O)N4N=CCC4c4coc(C)n4)CC3)ncc2F)n1 (stereo not drawn) [Compound 211, (4-(4-(3,5-dimethyl-1H-1,2,4-triazol-1-yl)-5-fluoropyrimidin-2-yl)piperazin-1-yl)(5-(2-methyloxazol-4-yl)-4,5-dihydro-1H-pyrazol-1-yl)methanone] | 0.1 to 100 | –
Cc1nc(C)n(-c2nc(N3CCN(C(=O)N4N=CCC4c4cscn4)CC3)ncc2F)n1 (stereo not drawn) [Compound 212, (4-(4-(3,5-dimethyl-1H-1,2,4-triazol-1-yl)-5-fluoropyrimidin-2-yl)piperazin-1-yl)(5-(thiazol-4-yl)-4,5-dihydro-1H-pyrazol-1-yl)methanone] | 100 to 1000 | –
Cc1nc(C)n(-c2nc(N3CCN(C(=O)N4N=CCC4c4csc(C)n4)CC3)ncc2F)n1 (stereo not drawn) [Compound 213, (4-(4-(3,5-dimethyl-1H-1,2,4-triazol-1-yl)-5-fluoropyrimidin-2-yl)piperazin-1-yl)(5-(2-methylthiazol-4-yl)-4,5-dihydro-1H-pyrazol-1-yl)methanone] | 100 to 1000 | –
Cc1nc(C)n(-c2nc(N3CCN(C(=O)N4N=CCC4c4cnc(C)s4)CC3)ncc2F)n1 (stereo not drawn) [Compound 214, (4-(4-(3,5-dimethyl-1H-1,2,4-triazol-1-yl)-5-fluoropyrimidin-2-yl)piperazin-1-yl)(5-(2-methylthiazol-5-yl)-4,5-dihydro-1H-pyrazol-1-yl)methanone] | – | 0.1 to 100
Cc1csc(C2CC=NN2C(=O)N2CCN(c3ncc(F)c(-n4nc(C)nc4C)n3)CC2)n1 (stereo not drawn) [Compound 215] | 0.1 to 100 | –
Cc1nc(C)n(-c2nc(N3CCN(C(=O)N4N=CCC4c4ncc(C)s4)CC3)ncc2F)n1 (stereo not drawn) [Compound 216, (4-(4-(3,5-dimethyl-1H-1,2,4-triazol-1-yl)-5-fluoropyrimidin-2-yl)piperazin-1-yl)(5-(5-methylthiazol-2-yl)-4,5-dihydro-1H-pyrazol-1-yl)methanone] | 0.1 to 100 | –
Cc1nc(C)n(-c2nc(N3CCN(C(=O)N4N=CCC4c4nccs4)CC3)ncc2F)n1 (stereo not drawn) [Compound 217, (4-(4-(3,5-dimethyl-1H-1,2,4-triazol-1-yl)-5-fluoropyrimidin-2-yl)piperazin-1-yl)(5-(thiazol-2-yl)-4,5-dihydro-1H-pyrazol-1-yl)methanone] | 0.1 to 100 | –
